Values quoted from earlier work as cited in patent US11452308B2, “Method of selecting a probiotic” (SOCIETE DES PRODUITS NESTLE S.A., priority 2017, dated 2022).

Experiments:
[1] = in vivo
[2] = compared with hydroxytyrosol

Row | Compound | clearance from the plasma [1] | solubility in the lipophilic phases [2]
1 | CC=C1C(O)OC=C(C(=O)OC)C1CC(=O)OCCc1ccc(O)c(O)c1 (centres unmarked) [oleuropein aglycone, 3,4-dihydroxyphenylethanol-elenolic acid] | slower clearance from the plasma | –
2 | hydroxytyrosol acetate | – | more soluble in the lipophilic phases than hydroxytyrosol
